Results on 19 molecules are retold here after patent US20080021026A1, “BENZOTHIOPHENE INHIBITORS OF RHO KINASE” (priority 2006, published 2008).

Structures are written as SMILES.

In this test the target is T1, recombinant N-terminal GST-tagged human Rho kinase 2 (ROCK2, amino acids 1-552) (Homo sapiens, UniProt O75116).
T1 construct: ROCK2, amino acids 1-552; purchased Invitrogen Inc. PV3759
T1 sequence (O75116 1-552): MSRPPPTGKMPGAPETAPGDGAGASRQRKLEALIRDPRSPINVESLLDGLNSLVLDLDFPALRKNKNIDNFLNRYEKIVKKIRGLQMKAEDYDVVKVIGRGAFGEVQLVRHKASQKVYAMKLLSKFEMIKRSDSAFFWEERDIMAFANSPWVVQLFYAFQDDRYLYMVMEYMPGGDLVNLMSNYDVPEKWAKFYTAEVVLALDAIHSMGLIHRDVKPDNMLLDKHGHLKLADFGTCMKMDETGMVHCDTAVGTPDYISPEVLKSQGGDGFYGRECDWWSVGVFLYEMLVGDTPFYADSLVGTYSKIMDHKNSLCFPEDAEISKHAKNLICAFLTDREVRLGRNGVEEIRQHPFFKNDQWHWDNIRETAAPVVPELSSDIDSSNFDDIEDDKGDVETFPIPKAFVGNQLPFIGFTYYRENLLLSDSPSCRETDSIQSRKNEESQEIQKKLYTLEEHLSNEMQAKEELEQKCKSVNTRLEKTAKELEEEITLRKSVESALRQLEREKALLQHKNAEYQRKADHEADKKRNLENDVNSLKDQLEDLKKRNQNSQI
As to the kind of experiment: In vitro Rho kinase assay (luciferase-based ATP consumption), ROCK2. It is filed as biochemical. To be noted: recombinant GST-tagged human ROCK2, luciferase-based ATP consumption; read-out: ROCK2 IC50. An outline of the steps: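 GST-ROCK2 (aa 1-552, 0.82 μg/ml) with 100 μg/ml S6 peptide and 3 µM ATP in Tris pH 7.5 buffer with MgCl2/CaCl2/EGTA/BSA, compound added just after reaction start, 2 h at 30 °C. Remaining ATP read by luciferase luminescence. Efficacy expressed as percentage of H-1152P positive control.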
As for `Cc1c(-c2ccnc(N)n2)sc2ccc(C(=O)N(CCc3ccccc3)Cc3ccccc3)cc12` [Example 556, Cc1c(sc2ccc(cc12)C(═O)N(CCc3ccccc3)Cc4ccccc4)-c5ccnc(N)n5], the IC50 is above 5 µM.

As to `Cc1c(-c2ccnc(N)n2)sc2ccc(C(=O)N(CCC#N)Cc3cccnc3)cc12` [Example 512, Cc1c(sc2ccc(cc12)C(═O)N(CCC#N)Cc3cccnc3)-c4ccnc(N)n4], the IC50 was below 5 µM.

Regarding `Cc1c(-c2ccnc(N)n2)sc2ccc(C(=O)NC(C)CC(C)C)cc12` (stereo not shown) [Example 359, CC(C)CC(C)NC(═O)c1ccc2sc(c(C)c2c1)-c3ccnc(N)n3], the IC50 is above 5 µM.

As to `COCC(C)NC(=O)c1ccc2sc(-c3ccnc(N)n3)c(C)c2c1` (stereo not shown) [Example 352, COCC(C)NC(═O)c1ccc2sc(c(C)c2c1)-c3ccnc(N)n3], the IC50 is above 5 µM.

Regarding `Cc1c(-c2ccnc(N)n2)sc2ccc(C(=O)NCC3CCCO3)cc12` (stereo not shown) [Example 357, Cc1c(sc2ccc(cc12)C(═O)NCC3CCCO3)-c4ccnc(N)n4], the half-maximal inhibitory concentration (IC50) was below 5 µM.

For the molecule `Cc1c(-c2ccnc(N)n2)sc2ccc(C(=O)NCC(C)C)cc12` [Example 342, CC(C)CNC(═O)c1ccc2sc(c(C)c2c1)-c3ccnc(N)n3], the IC50 was below 5 µM.

With `Cc1c(-c2ccnc(N)n2)sc2ccc(C(=O)N(C)CC(C)C)cc12` [Example 467, CC(C)CN(C)C(═O)c1ccc2sc(c(C)c2c1)-c3ccnc(N)n3], the IC50 is below 5 µM.

For the molecule `CCCN(C)C(=O)c1ccc2sc(-c3ccnc(N)n3)c(C)c2c1` [Example 463, CCCN(C)C(═O)c1ccc2sc(c(C)c2c1)-c3ccnc(N)n3], the IC50 was below 5 µM.

With `Cc1c(-c2ccnc(N)n2)sc2ccc(C(=O)NCCCN(C)c3ccccc3)cc12` [Example 437, CN(CCCNC(═O)c1ccc2sc(c(C)c2c1)-c3ccnc(N)n3)c4ccccc4], the IC50 was below 5 µM.

Regarding `CCN(C(=O)c1ccc2sc(-c3ccnc(N)n3)c(C)c2c1)C(Cc1ccccc1)c1ccco1` (stereo not shown) [Example 560, CCN(C(Cc1ccccc1)c2ccco2)C(═O)c3ccc4sc(c(C)c4c3)-c5ccnc(N)n5], the IC50 was below 5 µM.

In the case of `Cc1c(-c2ccnc(N)n2)sc2ccc(C(=O)NCc3ccc(N(C)C)cc3)cc12` [Example 450, CN(C)c1ccc(CNC(═O)c2ccc3sc(c(C)c3c2)-c4ccnc(N)n4)cc1], the IC50 is above 5 µM.

Consider `Cc1c(-c2ccnc(N)n2)sc2ccc(C(=O)N3CCCC4CCCCC43)cc12` (stereo not shown) [Example 502, Cc1c(sc2ccc(cc12)C(═O)N3CCCC4CCCCC34)-c5ccnc(N)n5], for which the IC50 is above 5 µM.

As for `Cc1c(-c2ccnc(N)n2)sc2ccc(C(=O)NCCN3CCOCC3)cc12` [Example 389, Cc1c(sc2ccc(cc12)C(═O)NCCN3CCOCC3)-c4ccnc(N)n4], the IC50 was below 5 µM.

In the case of `CCOC(=O)N1CCN(C(=O)c2ccc3sc(-c4ccnc(N)n4)c(C)c3c2)CC1` [Example 511, CCOC(═O)N1CCN(CC1)C(═O)c2ccc3sc(c(C)c3c2)-c4ccnc(N)n4], the IC50 is above 5 µM.

As to `COc1cc2c(cc1OC)CN(C(=O)c1ccc3sc(-c4ccnc(N)n4)c(C)c3c1)CC2` [Example 564, COc1cc2CCN(Cc2cc1OC)C(═O)c3ccc4sc(c(C)c4c3)-c5ccnc(N)n5], the IC50 is below 5 µM.

In the case of `Cc1c(-c2ccnc(N)n2)sc2ccc(C(=O)NCc3ccc(F)cc3)cc12` [Example 383, Cc1c(sc2ccc(cc12)C(═O)NCc3ccc(F)cc3)-c4ccnc(N)n4], the IC50 is below 5 µM.

Turning to `Cc1c(-c2ccnc(N)n2)sc2ccc(C(=O)NCCCc3ccccc3)cc12` [Example 397, Cc1c(sc2ccc(cc12)C(═O)NCCCc3ccccc3)-c4ccnc(N)n4], the IC50 is below 5 µM.

In the case of `Cc1c(-c2ccnc(N)n2)sc2ccc(C(=O)NCCc3c[nH]c4ccccc34)cc12` [Example 435, Cc1c(sc2ccc(cc12)C(═O)NCCc3c[nH]c4ccccc34)-c5ccnc(N)n5], the IC50 was below 5 µM.

On to `CCN(Cc1ccccc1)C(=O)c1ccc2sc(-c3ccnc(N)n3)c(C)c2c1` [Example 499, CCN(Cc1ccccc1)C(═O)c2ccc3sc(c(C)c3c2)-c4ccnc(N)n4], for which the IC50 is below 5 µM.
